PMC5608758, “A brain-targeting lipidated peptide for neutralizing RNA-mediated toxicity in Polyglutamine Diseases” (Scientific Reports, 2017)

How the values were obtained:
DsRed CAG100 Drosophila = experiment: Pseudopupil assay of retinal degeneration; assay type: in vivo; conditions: 1 µM peptide fed to third instar larvae for 2 hr in 2% sucrose; 12 day-old adult flies; mean ± S.E.M.
Experimental: Flies were raised at 21.5 °C on cornmeal medium supplemented with dry yeast. Fly lines bearing UAS-DsRed CAG0 and UAS-DsRed CAG100 were kind gifts of Professor Nancy Bonini (University of Pennsylvania, USA). The gmr-GAL4 fly line was obtained from Bloomington Drosophila Stock Center. For pseudopupil assay, third instar larvae were fed with various amount of respective peptides dissolved in 2% sucrose solution for 2 hr and then continued to culture in standard fly food at 21.5 °C[38]. Pseudopupil assay was performed on 12 day-old adult flies as mentioned previously. Images were captured by SPOT Insight CCD camera controlled by the SPOT Advanced software (Diagnostic instruments Inc.). Image processing was performed using the Adobe Photoshop CS software (Adobe). Each experiment was repeated at least 3 times (n = 10 fly heads), and consistent results were obtained. For viability test of wild-type flies from egg to adult stage, eggs born within 5 hr were collected and cultured in fly food containing 10 or 50 μM of respective peptides at 21.5°C. Viability from egg-to-adult was calculated as the number of adult flies collected divided by the number of eggs examined. Each experiment was repeated for three times (at least 130 eggs were examined in each group). Two batches of independently synthesized peptides were used in the experiments.

[1] = tested on: pre-45s rRNA in EGFP CAG78 RNA-expressing HEK293 cells; experiment: Real-time PCR of pre-45s rRNA level in cells; assay type: cell-based; conditions: peptide transfected with DeliverX
Experimental: HEK293 cells were cultured at 37 °C with 5% CO2 in DMEM supplemented with 10% FBS and 1% penicillin-streptomycin. Primary rat cortical neurons were isolated and cultured as previously described. Transient transfection of HEK293 cells was performed using Lipofectamine 2000 (Life Technologies). P3V8 were delivered to HEK293 cells using the DeliverX (DX) Peptide Transfection Kit (Affymetrix) 4 hr after DNA transfection. At least two batches of independently synthesized peptides were used in the experiments.
RNA was extracted from cells or ten 12 day-old adult fly heads by Trizol reagent (Life Technologies), and 1 μg of purified RNA was then used for reverse-transcription using the ImPromII™ Reverse Transcription System (Promega). Random hexamer (Roche) was used as primers in reverse transcription. Taqman gene expression assays were performed on an ABI 7500 Real-time PCR system and data were analyzed as previously described. The following probes were used: pre-45s rRNA (Assay ID: AILJIZM), pre-rRNA (Assay ID: AIMSG5U), Drosophila GAPDH (Assay ID: Dm01841186) and human actin (Assay ID: Hs99999903_m1). Each experiment was repeated at least 3 times.

Ac-DGKSKGIAYIEFK-NH2 [P3V8]
pseudopupil score (DsRed CAG100 Drosophila): 4.32 ± 0.25 | restoration of pre-45s rRNA level [1]: dose-dependent restoration
